Source: the kinase profiling compilation of Christmann-Franck et al. (2016)
Where “and” joins values, the source holds several entries; their conditions need not be identical. Identical values can stand only once.

Assays:
Experiment in all cases: radiometric filter-binding kinase assay, Kinase HotSpot
Settings in all cases: compound 0.5 µM; ATP 10 µM
ABL1 (human) = ABL1 (human) (UniProt P00519)
AXL (human) = AXL (human) (UniProt P30530)
BLK (human) = BLK (human) (UniProt P51451)
BRSK1 (human) = BRSK1 (human) (UniProt Q8TDC3)
CAMK1 (human) = CAMK1 (human) (UniProt Q14012)
CAMK1D (human) = CAMK1D (human) (UniProt Q8IU85)
CDC42BPB (human) = CDC42BPB (human) (UniProt Q9Y5S2)
CDK4 CCND1 (human) = CDK4 CCND1 (human) (UniProt P24385+P11802)
CDK4 CCND3 (human) = CDK4 CCND3 (human) (UniProt P30281+P11802)
CDK5 CDK5R1 p35 (human) = CDK5 CDK5R1 p35 (human) (UniProt Q00535+Q15078)
CDK9 CCNT1 (human) = CDK9 CCNT1 (human) (UniProt P50750+O60563)
CLK1 (human) = CLK1 (human) (UniProt P49759)
CLK3 (human) = CLK3 (human) (UniProt P49761)
CSNK1A1 (human) = CSNK1A1 (human) (UniProt P48729)
DMPK (human) = DMPK (human) (UniProt Q09013)
DYRK3 (human) = DYRK3 (human) (UniProt O43781)
EPHB4 (human) = EPHB4 (human) (UniProt P54760)
FGFR3 (human) = FGFR3 (human) (UniProt P22607)
FRK (human) = FRK (human) (UniProt P42685)
GRK5 (human) = GRK5 (human) (UniProt P34947)
JAK3 JH1 JH2 (human) = JAK3 JH1 JH2 (human) (UniProt P52333)
LCK (human) = LCK (human) (UniProt P06239)
LIMK1 (human) = LIMK1 (human) (UniProt P53667)
LYN (human) = LYN (human) (UniProt P07948)
MAP3K3 (human) = MAP3K3 (human) (UniProt Q99759)
MARK2 (human) = MARK2 (human) (UniProt Q7KZI7)
MUSK (human) = MUSK (human) (UniProt O15146)
PIM2 (human) = PIM2 (human) (UniProt Q9P1W9)
PRKD3 (human) = PRKD3 (human) (UniProt O94806)
PRKG1 (human) = PRKG1 (human) (UniProt Q13976)
RIPK2 (human) = RIPK2 (human) (UniProt O43353)
ROCK2 (human) = ROCK2 (human) (UniProt O75116)
ROS1 (human) = ROS1 (human) (UniProt P08922)
RPS6KB1 (human) = RPS6KB1 (human) (UniProt P23443)
RPS6KB2 (human) = RPS6KB2 (human) (UniProt Q9UBS0)
SGK2 (human) = SGK2 (human) (UniProt Q9HBY8)
STK39 (human) = STK39 (human) (UniProt Q9UEW8)
TAOK1 (human) = TAOK1 (human) (UniProt Q7L7X3)
TGFBR2 (human) = TGFBR2 (human) (UniProt P37173)
ULK2 (human) = ULK2 (human) (UniProt Q8IYT8)
WNK2 (human) = WNK2 (human) (UniProt Q9Y3S1)
YES1 (human) = YES1 (human) (UniProt P07947)

Sequence of PRKG1 (human) (Q13976 whole entry, looked up): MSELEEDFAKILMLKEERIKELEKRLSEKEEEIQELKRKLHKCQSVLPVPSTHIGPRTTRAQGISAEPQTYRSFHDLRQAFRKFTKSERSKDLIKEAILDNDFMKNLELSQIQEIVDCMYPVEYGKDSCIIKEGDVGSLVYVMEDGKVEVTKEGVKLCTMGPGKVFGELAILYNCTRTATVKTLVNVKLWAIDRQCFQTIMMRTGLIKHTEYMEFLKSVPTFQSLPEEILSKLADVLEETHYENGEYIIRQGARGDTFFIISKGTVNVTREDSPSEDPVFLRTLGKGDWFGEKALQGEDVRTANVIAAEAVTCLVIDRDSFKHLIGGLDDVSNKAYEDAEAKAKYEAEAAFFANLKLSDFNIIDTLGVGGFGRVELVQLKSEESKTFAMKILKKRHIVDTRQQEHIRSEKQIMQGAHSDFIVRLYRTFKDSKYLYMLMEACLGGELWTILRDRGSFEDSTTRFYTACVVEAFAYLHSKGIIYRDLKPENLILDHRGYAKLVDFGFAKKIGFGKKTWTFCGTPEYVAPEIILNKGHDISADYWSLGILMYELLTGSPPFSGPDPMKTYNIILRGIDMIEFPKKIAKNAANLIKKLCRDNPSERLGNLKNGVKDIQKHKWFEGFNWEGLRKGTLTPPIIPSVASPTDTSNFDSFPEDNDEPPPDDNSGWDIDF
Sequence of LYN (human) (P07948 whole entry, looked up): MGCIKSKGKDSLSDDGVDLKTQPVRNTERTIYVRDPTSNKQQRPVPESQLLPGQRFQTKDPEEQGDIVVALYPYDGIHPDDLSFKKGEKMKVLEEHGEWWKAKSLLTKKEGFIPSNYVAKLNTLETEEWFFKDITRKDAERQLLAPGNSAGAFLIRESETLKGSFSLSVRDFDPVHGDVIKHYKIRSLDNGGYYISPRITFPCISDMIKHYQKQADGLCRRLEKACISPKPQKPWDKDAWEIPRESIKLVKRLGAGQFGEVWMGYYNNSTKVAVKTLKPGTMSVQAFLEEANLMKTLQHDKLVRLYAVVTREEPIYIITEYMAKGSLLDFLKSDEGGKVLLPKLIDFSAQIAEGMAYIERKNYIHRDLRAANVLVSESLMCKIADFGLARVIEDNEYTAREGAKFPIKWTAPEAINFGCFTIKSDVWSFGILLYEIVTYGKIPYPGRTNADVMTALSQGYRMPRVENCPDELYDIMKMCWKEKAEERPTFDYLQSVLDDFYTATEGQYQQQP
Sequence of DMPK (human) (Q09013 whole entry, looked up): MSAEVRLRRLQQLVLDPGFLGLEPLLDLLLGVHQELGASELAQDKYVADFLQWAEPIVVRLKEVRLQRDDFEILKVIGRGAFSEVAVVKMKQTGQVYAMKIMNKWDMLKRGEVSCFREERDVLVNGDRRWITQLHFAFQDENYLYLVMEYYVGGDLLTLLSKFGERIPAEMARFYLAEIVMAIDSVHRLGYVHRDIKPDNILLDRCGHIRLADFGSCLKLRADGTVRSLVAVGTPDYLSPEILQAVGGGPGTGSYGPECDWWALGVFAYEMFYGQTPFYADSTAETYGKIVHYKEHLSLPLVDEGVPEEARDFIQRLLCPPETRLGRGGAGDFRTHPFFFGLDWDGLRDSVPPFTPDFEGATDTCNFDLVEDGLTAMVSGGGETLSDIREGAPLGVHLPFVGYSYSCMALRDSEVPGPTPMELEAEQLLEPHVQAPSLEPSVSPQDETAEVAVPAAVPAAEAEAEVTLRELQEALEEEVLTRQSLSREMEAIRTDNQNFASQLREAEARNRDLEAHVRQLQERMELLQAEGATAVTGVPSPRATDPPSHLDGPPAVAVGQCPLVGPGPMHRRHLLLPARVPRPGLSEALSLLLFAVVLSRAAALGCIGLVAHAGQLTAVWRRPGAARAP
Sequence of MARK2 (human) (Q7KZI7 whole entry, looked up): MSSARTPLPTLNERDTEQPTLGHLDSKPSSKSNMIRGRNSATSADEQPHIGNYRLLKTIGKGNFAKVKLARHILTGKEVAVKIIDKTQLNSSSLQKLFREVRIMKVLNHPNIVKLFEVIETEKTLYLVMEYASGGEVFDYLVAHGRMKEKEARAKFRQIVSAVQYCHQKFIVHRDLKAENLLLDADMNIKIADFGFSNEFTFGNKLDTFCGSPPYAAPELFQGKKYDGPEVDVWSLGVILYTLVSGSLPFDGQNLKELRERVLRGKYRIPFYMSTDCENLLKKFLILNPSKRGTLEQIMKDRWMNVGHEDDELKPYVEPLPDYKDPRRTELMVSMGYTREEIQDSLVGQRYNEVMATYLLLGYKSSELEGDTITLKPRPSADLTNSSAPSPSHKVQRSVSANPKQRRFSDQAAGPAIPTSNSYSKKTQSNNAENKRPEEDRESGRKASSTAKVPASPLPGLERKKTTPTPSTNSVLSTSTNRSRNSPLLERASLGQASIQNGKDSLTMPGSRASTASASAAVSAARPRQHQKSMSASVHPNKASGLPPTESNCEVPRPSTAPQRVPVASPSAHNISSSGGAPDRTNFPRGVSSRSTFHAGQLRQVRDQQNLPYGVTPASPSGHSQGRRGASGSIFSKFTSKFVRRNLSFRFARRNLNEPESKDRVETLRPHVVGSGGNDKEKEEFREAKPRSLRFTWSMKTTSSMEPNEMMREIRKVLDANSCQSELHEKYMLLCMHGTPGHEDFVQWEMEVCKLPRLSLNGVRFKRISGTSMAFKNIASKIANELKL
Sequence of CDC42BPB (human) (Q9Y5S2 whole entry, looked up): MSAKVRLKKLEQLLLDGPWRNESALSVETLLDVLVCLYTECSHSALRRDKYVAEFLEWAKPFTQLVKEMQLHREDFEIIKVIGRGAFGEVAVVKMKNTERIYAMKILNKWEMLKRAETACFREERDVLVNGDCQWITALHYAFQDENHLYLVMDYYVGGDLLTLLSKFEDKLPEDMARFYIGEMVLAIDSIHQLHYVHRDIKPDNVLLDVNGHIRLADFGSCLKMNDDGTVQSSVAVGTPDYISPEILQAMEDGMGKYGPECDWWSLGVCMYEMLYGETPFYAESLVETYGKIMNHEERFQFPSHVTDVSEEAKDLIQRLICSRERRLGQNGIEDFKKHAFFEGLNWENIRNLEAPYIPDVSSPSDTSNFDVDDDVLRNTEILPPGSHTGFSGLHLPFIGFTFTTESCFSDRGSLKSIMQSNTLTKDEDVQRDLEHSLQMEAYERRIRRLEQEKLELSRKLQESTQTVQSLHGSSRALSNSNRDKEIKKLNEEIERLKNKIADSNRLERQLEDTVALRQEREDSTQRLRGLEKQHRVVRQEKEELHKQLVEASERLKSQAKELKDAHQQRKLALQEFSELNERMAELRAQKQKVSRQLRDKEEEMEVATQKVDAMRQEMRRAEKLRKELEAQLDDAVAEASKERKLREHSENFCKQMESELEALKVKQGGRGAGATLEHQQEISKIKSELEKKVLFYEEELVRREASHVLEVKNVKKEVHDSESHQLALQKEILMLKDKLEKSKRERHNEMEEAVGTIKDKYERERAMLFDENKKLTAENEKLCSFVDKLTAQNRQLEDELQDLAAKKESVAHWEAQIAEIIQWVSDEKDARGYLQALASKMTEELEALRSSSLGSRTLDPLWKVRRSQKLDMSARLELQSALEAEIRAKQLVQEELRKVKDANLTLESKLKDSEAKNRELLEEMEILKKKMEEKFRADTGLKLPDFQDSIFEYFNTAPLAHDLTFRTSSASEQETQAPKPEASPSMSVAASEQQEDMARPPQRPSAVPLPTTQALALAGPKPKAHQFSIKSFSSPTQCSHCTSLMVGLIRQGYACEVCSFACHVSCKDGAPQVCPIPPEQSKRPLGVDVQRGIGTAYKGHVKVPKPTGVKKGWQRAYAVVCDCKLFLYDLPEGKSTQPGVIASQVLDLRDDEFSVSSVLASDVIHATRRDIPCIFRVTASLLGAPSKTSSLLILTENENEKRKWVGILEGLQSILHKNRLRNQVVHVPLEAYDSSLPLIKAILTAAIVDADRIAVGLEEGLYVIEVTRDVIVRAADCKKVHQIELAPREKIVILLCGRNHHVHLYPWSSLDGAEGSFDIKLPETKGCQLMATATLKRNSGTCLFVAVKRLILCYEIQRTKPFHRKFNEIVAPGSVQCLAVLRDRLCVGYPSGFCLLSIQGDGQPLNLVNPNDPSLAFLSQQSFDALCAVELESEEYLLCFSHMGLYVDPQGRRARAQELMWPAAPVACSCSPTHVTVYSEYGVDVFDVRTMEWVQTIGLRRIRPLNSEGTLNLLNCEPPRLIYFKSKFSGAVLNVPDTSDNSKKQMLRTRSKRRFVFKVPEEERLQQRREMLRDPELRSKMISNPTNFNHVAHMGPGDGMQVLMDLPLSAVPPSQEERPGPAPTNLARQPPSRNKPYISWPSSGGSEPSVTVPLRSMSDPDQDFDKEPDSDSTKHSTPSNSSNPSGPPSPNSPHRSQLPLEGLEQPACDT
Sequence of CAMK1 (human) (Q14012 whole entry, looked up): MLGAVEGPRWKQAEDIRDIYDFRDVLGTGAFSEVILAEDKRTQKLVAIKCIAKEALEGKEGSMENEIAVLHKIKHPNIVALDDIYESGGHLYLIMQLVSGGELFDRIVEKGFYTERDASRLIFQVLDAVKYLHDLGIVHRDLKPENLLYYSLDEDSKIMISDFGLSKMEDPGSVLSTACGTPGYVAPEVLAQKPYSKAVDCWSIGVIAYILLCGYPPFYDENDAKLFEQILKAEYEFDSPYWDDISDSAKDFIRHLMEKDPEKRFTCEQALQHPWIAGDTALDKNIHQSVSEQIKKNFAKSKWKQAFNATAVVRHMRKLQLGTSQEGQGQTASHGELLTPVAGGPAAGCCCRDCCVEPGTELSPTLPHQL
Sequence of PIM2 (human) (Q9P1W9 whole entry, looked up): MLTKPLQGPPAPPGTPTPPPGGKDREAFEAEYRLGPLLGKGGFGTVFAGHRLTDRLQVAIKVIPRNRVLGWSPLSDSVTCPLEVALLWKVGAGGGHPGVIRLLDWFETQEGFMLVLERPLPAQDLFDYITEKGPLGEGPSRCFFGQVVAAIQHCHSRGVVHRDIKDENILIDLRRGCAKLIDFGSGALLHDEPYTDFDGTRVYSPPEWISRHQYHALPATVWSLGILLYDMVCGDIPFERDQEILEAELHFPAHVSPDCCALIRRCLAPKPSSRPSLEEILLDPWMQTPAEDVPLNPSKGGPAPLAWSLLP

Work on `c1ccc2c(-c3ccncc3)c[nH]c2c1` yielded a residual activity (ABL1 (human)) of 98.8%, a residual activity (AXL (human)) of 99.8% and a residual activity (BLK (human)) of 99.6%. For the same molecule, the residual activity (BRSK1 (human)) was 90.3%, the residual activity (CAMK1 (human)) was 108% and the residual activity (CAMK1D (human)) was 107%. For the same molecule, the residual activity (CDC42BPB (human)) was 104%, the residual activity (CDK4 CCND1 (human)) was 112% and the residual activity (CDK4 CCND3 (human)) was 102%. It also gave a residual activity (CDK5 CDK5R1 p35 (human)) of 96%, a residual activity (CDK9 CCNT1 (human)) of 75.2% and a residual activity (CLK1 (human)) of 105%. For the same molecule, the residual activity (CLK3 (human)) was 92.6%, the residual activity (CSNK1A1 (human)) was 100% and the residual activity (DMPK (human)) was 109%. It also gave a residual activity (DYRK3 (human)) of 101%, a residual activity (EPHB4 (human)) of 89.7% and a residual activity (FGFR3 (human)) of 98.9%. For the same molecule, the residual activity (FRK (human)) was 106%, the residual activity (GRK5 (human)) was 99.2% and the residual activity (JAK3 JH1 JH2 (human)) was 95.3%. The residual activity (LCK (human)) was 102%, the residual activity (LIMK1 (human)) was 92% and the residual activity (LYN (human)) was 100% and 102%. For the same molecule, the residual activity (MAP3K3 (human)) was 103%, the residual activity (MARK2 (human)) was 102% and the residual activity (MUSK (human)) was 78.9%. The residual activity (PIM2 (human)) was 105%, the residual activity (PRKD3 (human)) was 90.7% and the residual activity (PRKG1 (human)) was 64.8% and 77.7%. For the same molecule, the residual activity (RIPK2 (human)) was 89.9%, the residual activity (ROCK2 (human)) was 71.9% and the residual activity (ROS1 (human)) was 81.6%. For the same molecule, the residual activity (RPS6KB1 (human)) was 79.9%, the residual activity (RPS6KB2 (human)) was 97.8% and the residual activity (SGK2 (human)) was 91%. For the same molecule, the residual activity (STK39 (human)) was 99.8%, the residual activity (TAOK1 (human)) was 88.4% and the residual activity (TGFBR2 (human)) was 119%. The residual activity (ULK2 (human)) was 106%, the residual activity (WNK2 (human)) was 96.9% and the residual activity (YES1 (human)) was 97.1%.
For `Ic1cccc(CSc2nnc(-c3ccncc3)o2)c1`, the residual activity (ABL1 (human)) was 107%, the residual activity (AXL (human)) was 99.2% and the residual activity (BLK (human)) was 103%. The residual activity (BRSK1 (human)) was 101%, the residual activity (CAMK1 (human)) was 102% and the residual activity (CAMK1D (human)) was 101%. It also gave a residual activity (CDC42BPB (human)) of 96.6%, a residual activity (CDK4 CCND1 (human)) of 96.3% and a residual activity (CDK4 CCND3 (human)) of 97.5%. The residual activity (CDK5 CDK5R1 p35 (human)) was 102%, the residual activity (CDK9 CCNT1 (human)) was 109% and the residual activity (CLK1 (human)) was 99.8%. It also gave a residual activity (CLK3 (human)) of 76.3%, a residual activity (CSNK1A1 (human)) of 97% and a residual activity (DMPK (human)) of 105%. For the same molecule, the residual activity (DYRK3 (human)) was 108%, the residual activity (EPHB4 (human)) was 101% and the residual activity (FGFR3 (human)) was 106%. It also gave a residual activity (FRK (human)) of 85.5%, a residual activity (GRK5 (human)) of 106% and a residual activity (JAK3 JH1 JH2 (human)) of 106%. The residual activity (LCK (human)) was 98.5%, the residual activity (LIMK1 (human)) was 85.8% and the residual activity (LYN (human)) was 103% and 99.6%. The residual activity (MAP3K3 (human)) was 89.6%, the residual activity (MARK2 (human)) was 116% and the residual activity (MUSK (human)) was 94.1%. For the same molecule, the residual activity (PIM2 (human)) was 102%, the residual activity (PRKD3 (human)) was 98.4% and the residual activity (PRKG1 (human)) was 92.1% and 95.5%. The residual activity (RIPK2 (human)) was 86.3%, the residual activity (ROCK2 (human)) was 89% and the residual activity (ROS1 (human)) was 99.3%. It also gave a residual activity (RPS6KB1 (human)) of 100%, a residual activity (RPS6KB2 (human)) of 103% and a residual activity (SGK2 (human)) of 102%. The residual activity (STK39 (human)) was 101%, the residual activity (TAOK1 (human)) was 101% and the residual activity (TGFBR2 (human)) was 121%. The residual activity (ULK2 (human)) was 111%, the residual activity (WNK2 (human)) was 99.5% and the residual activity (YES1 (human)) was 95.7%.
